The results in this text go back to PubChem BioAssay AID1996.

Values after ≈ are worked out from the molar mass of the structure shown. A value given as a limit tells only on which side of the number the result lay.

For the data set the following is noted: buffer; pH 7.4; 200.0 µM.
With `O=C(Cc1cccc2ccccc12)Nc1ccccc1`, the kinetic solubility (as a rule, the concentration staying in solution when a stock, usually in DMSO, is diluted into the medium) was 1.9 µg/mL (≈ 7.27 µM).
As for `Cc1ccnc(Nc2nc(-c3ccc(F)cc3)cs2)c1`, the solubility (kinetic) was less than 0.2 µg/mL.
Take `O=C1NC(=O)C2(CCCc3ccccc32)N1` (stereo not drawn): the kinetic solubility stood at 30.6 µg/mL (≈ 142 µM).
As to `CC1CC(=O)Nc2ccccc2N1C(=O)Nc1ccccc1` (stereo not drawn), the solubility (kinetic) turned out to be 30.2 µg/mL (≈ 102 µM).
In the case of `Nc1nc(Cl)cc(N2CCCC2)n1` it was greater than 29.8 µg/mL; in that of `CC(=O)N1CCN(CC(C)(C)NS(=O)(=O)c2ccccc2)CC1`, greater than 50.9 µg/mL; in that of `Cc1ccc(OCC(=O)NCCNC(=O)c2cnccn2)cc1C`, 46.3 µg/mL (≈ 141 µM).
Compound `NC(=O)CS(=O)(=O)c1nc2ccccc2n1Cc1ccccn1` came in with a kinetic solubility greater than 49.6 µg/mL.
For `O=[N+]([O-])c1ccc2c(c1)ncn2CCc1ccccc1`, the solubility (kinetic) was found to be 8 µg/mL (≈ 29.9 µM).
On to `CN(C)c1nc(NCc2ccccc2)nc(SCC(N)=O)n1`, for which the solubility (kinetic) was 43.7 µg/mL (≈ 137 µM).
The compound `Cc1ccc2nc(-c3ccncc3)cc(C(=O)NCc3ccccc3F)c2c1` gave a solubility (kinetic) of 2.5 µg/mL (≈ 6.73 µM).
Turning to `C[n+]1cn(Cc2ccc(C#N)cc2)c2ccccc21.[Cl-]`, the solubility (kinetic) came to 39.4 µg/mL.
Compound `COc1ccc2c(c1)C(=O)N(Cc1ccccc1)C(=O)C2(C)C` gave a kinetic solubility of 10.5 µg/mL (≈ 33.9 µM).
In the case of `Cc1cccc(C(=O)NCC(=O)OCc2nc(N)nc(Nc3ccccc3C)n2)c1` it was 53.8 µg/mL (≈ 132 µM); in that of `COCCC(=O)Nc1ccc2c(c1)CN(C(=O)CCOC)CC2`, greater than 48.1 µg/mL.
In the case of `CN(C)S(=O)(=O)N1CCC(CO)(CCc2ccccc2)CC1` it was greater than 49 µg/mL; in that of `Cc1nc(N2CCCCC2)c2c(-c3cccs3)csc2n1`, 2.3 µg/mL (≈ 7.29 µM); in that of `CCN1C(=O)CSC1=Nc1ccccc1Cl`, 27.9 µg/mL (≈ 110 µM).
With `O=C1c2ccccc2C(=O)N1Cc1cc(Cl)c(O)c([N+](=O)[O-])c1`, the kinetic solubility is greater than 49.9 µg/mL.
Consider `Cc1cc(NC(=O)c2ccc3c(c2)C(=O)N(CC(C)C)C3=O)no1`, for which the solubility (kinetic) came to 2.1 µg/mL (≈ 6.42 µM).
As for `S=C(c1ccc(OCc2ccccc2)cc1)N1CCCC1`, the kinetic solubility was less than 0.6 µg/mL.
For the compound `Cc1csc(NC(=O)CCCc2cccs2)n1`, the kinetic solubility was found to be 28.2 µg/mL (≈ 106 µM).
`Cc1ccc(Cn2c(C)nc3ccc([N+](=O)[O-])cc3c2=O)cc1`: the kinetic solubility was 1.5 µg/mL (≈ 4.85 µM).
Consider `CC(=O)c1csc(-c2ccccc2)n1`, for which the kinetic solubility was determined as 16.6 µg/mL (≈ 81.7 µM).
In the case of `CCOc1ccc(NC(=O)C2CC3CCC2C3)cc1` (stereo not drawn) it was 6.1 µg/mL (≈ 23.5 µM); in that of `CCOC(=O)c1cc(C#N)c(=S)[nH]c1C`, 33.1 µg/mL (≈ 149 µM); in that of `Cc1ccccc1NC(=O)NC1(C(=O)NCc2ccco2)CCCCC1`, 8.5 µg/mL (≈ 23.9 µM).
Compound `O=C(NC1CCCCC1)c1cc(-c2ccc(Cl)cc2)on1` showed a solubility (kinetic) of 0.5 µg/mL (≈ 1.64 µM).
Consider `CSc1ccccc1C(=O)Nc1cccc([N+](=O)[O-])c1`, for which the solubility (kinetic) was found to be 28.2 µg/mL (≈ 97.8 µM).
In the case of `O=C1CC(c2ccccc2)CC(=O)C1=CN1CCCC1` (stereo not drawn), the kinetic solubility is greater than 40.4 µg/mL.
Take `O=C(O)CCNC(=O)c1ccccc1`: the kinetic solubility is greater than 29 µg/mL.
`Nc1ccc(Oc2ccc3c(c2)C(=O)NC3=O)cc1` had a solubility (kinetic) of 35.5 µg/mL (≈ 140 µM).
In the case of `Cc1ccc(-n2c(C)nc3cc(Cl)ccc3c2=O)nc1` it was greater than 42.9 µg/mL.
The compound `Cc1cc(C)c(C)c(S(=O)(=O)NCCN2CCOCC2)c1C` displayed a solubility (kinetic) of 48.8 µg/mL (≈ 149 µM).
As for `Cl.O=C(CN1CCOCC1)NCc1ccc(F)cc1`, the solubility (kinetic) is greater than 43.3 µg/mL.
`O=C(O)c1cc(O)ccc1NC(=O)C(c1ccccc1)c1ccccc1` showed a kinetic solubility greater than 52.1 µg/mL.
For `O=C(Cc1ccccc1)NCC(=O)N1CCC1`, the kinetic solubility was greater than 34.8 µg/mL.
For `Cc1ccnc(NC(=O)c2ccco2)n1`, the kinetic solubility was greater than 30.5 µg/mL.
Compound `Cc1nc(Cl)c2c(n1)NC(=O)CO2` returned a solubility (kinetic) greater than 29.9 µg/mL.
Take `Cc1cc(-c2ccccc2)nc2c(Br)c(=O)[nH]n12`: the kinetic solubility is greater than 45.6 µg/mL.
`CCN1CCN(C(=O)/C=C/c2ccc3c(c2)OCO3)CC1`: the kinetic solubility is greater than 43.3 µg/mL.
Take `COCCn1c(N2CCCC2)nc2c1c(=O)[nH]c(=O)n2C`: the solubility (kinetic) was greater than 44 µg/mL.
The compound `CCOC(=O)c1c(C)noc1-c1ccco1` returned a kinetic solubility of 7.5 µg/mL (≈ 33.9 µM).
As for `CCc1cc(C(=O)c2ccc(OC)cc2)c(NC(=O)CCC(=O)O)s1`, the figure is greater than 54.2 µg/mL; as for `Cc1cccc(NC(=O)CCN2CCC(C(N)=O)CC2)c1`, 41.1 µg/mL (≈ 142 µM).
`COc1ccc(NC(=O)c2ccc[n+]([O-])c2)cc1` had a solubility (kinetic) greater than 36.6 µg/mL.
As to `CC(C)c1ccc(S(=O)(=O)N2CCN(C(=O)C3=COCCO3)CC2)cc1`, the solubility (kinetic) amounted to 18.3 µg/mL (≈ 48.1 µM).
In the case of `O=C(O)Cc1ccc(S(=O)(=O)Nc2ccccc2C(=O)O)cc1`, the kinetic solubility was found to be 43.4 µg/mL (≈ 129 µM).
In the case of `N/C(=N\OC(=O)Cc1ccc(Cl)cc1)c1ccncc1` it was 27.1 µg/mL (≈ 93.5 µM).
Consider `COc1ccc(C(=O)COC(=O)c2cnc(C)cn2)c(OC)c1`, for which the solubility (kinetic) was greater than 47.4 µg/mL.
In turn, `O=[N+]([O-])c1ccc(N2CCN(c3cccc(Cl)c3)CC2)cn1` displayed a kinetic solubility of 2.6 µg/mL (≈ 8.16 µM).
For `Oc1ccc(NCc2cccc(OCc3ccccc3)c2)cc1`, the solubility (kinetic) stood at 38.1 µg/mL (≈ 125 µM).
On to `COC(=O)c1ccccc1Nc1ccnc(Cl)n1`, for which the kinetic solubility came out at 32.1 µg/mL (≈ 122 µM).
